Consider eleven molecules from patent publication US5985281A, “Chemical compounds” (Zeneca Limited, priority 1994, dated 1999).

Data set [1] relates to Lys66Glu BP-RNase. Kind of data set: Enzyme kinetics of prodrug analogues with mutant Lys66Glu bovine RNase. The settings on record: 25° C.
For another data set, the system named is HP-RNase. The data set is classed as biochemical, human. The settings on record: pH 7.
The subject of data set [2] is Arg4Ala,Lys6Ala,Lys66Glu HP-RNase. The data set is classed as biochemical, human. As to conditions: for kcat/Km: pH 7.
Data set [3] concerns Lys66Glu BP-RNase. It is filed as biochemical, bovine. The settings on record: for kcat/Km: pH 7.5.
The test system of data set [4] is LoVo colorectal tumour cells.
A further data set concerns the target T1, BP-RNase (Bos taurus, UniProt P61823).
T1 sequence (P61823 27-150): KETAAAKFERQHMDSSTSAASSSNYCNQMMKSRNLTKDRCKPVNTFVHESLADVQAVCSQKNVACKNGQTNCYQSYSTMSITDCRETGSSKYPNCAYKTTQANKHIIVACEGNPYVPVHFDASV
Kind of data set: Enzyme kinetics of RNase prodrug versus native bovine pancreatic RNase. The data set is classed as biochemical. As to conditions: 37° C., pH 7.5.

The test system of a further data set is LoVo tumour. Kind of data set: Anti-tumour activity in LoVo xenografted mice. The settings on record: conjugate 10-100 mg/kg iv, then prodrug 100-1000 mg/kg iv or ip; vs untreated, conjugate or prodrug alone. It is filed as in vivo, athymic nude mice. Here is the method: LoVo tumour cells (10^7) are injected subcutaneously into athymic nude mice. When the tumours are 4-5 mm in diameter the conjugate is administered iv at doses between 10-100 mg/kg. Following localisation of the conjugate to the tumours and allowing a suitable time interval for residual conjugate to clear from the bloodstream and normal tissues (1-4 days) the prodrug is administered either iv or ip to the mice in dose ranging between 100-1000 mg/kg.

A further data set relates to D253K mutant HCPB. Put plainly: Determination of Km and kcat of D253K mutant HCPB with Hipp-Asp and Hipp-Glu. It is filed as biochemical, human. The settings on record: for Km / kcat / kcat/Km: pH 7.5, 37° C.
In a further data set the target is C > p. Put plainly: Kinetic characterisation of RNase enzymes with C>p as substrate at pH 7.0. The settings on record: CpA and C>p as substrates. It is filed as biochemical. How it is done: The kinetic characterisation was carried out using CpA and C>p as substrates (FIG. 16). The kinetic parameters Km, kcat, and kcat/Km were compared with the values obtained for commercial and recombinant bovine pancreatic RNase under the same assay conditions (see Tables).
Kinetic parameters of the different enzymes for C > p as […]

The nature of data set [5]: HCPB activity of COS cell supernatants against Hipp-Arg. It is filed as biochemical. The settings on record: COS-7 supernatant (250 μl), 5 h assay.
A short description of data set [6]: Conversion of Hipp-Arg to hippuric acid by mutant and native human CPB (HPLC). It is filed as biochemical. As to conditions: 4 μg enzyme, 5 h, 37° C., pH 7.5.
Data set [7] is described as follows: Conversion of Hipp-Glu to hippuric acid by mutant and native human CPB (HPLC). The settings on record: 0.5 mM Hipp-Glu, 4 μg enzyme, 5 h, 37° C., pH 7.5. The data set is classed as biochemical.
The nature of data set [8]: Enzymic activity of recombinant HCPB against Hipp-Arg (spectrophotometric). It is filed as biochemical. The settings on record: Tris HCl pH 7.5. Here is the method: Purified human CPB, produced as described in Reference Example 20, was assayed for its ability to convert hippuryl-L-arginine (Hipp-Arg) to hippuric acid using a spectrophotometric assay.
Km and Vmax values were calculated using the ENZFITTER™ software programme (Biosoft™, Perkin Elmer). Kcat was calculated form Vmax by dividing by the enzyme concentration in the reaction mixture.

The nature of data set [9]: Conversion of Hipp-Asp to hippuric acid by mutant and native human CPB (HPLC). It is filed as biochemical. The settings on record: 0.5 mM Hipp-Asp, 4 μg enzyme, 5 h, 37° C., pH 7.5.
The test system of the next data set is C>p. Put plainly: RNase activity of recombinant and Lys66Glu bovine RNase on hydrolysis of C>p (and CpA). It is filed as biochemical.

Changes are numbered by the printed parent chain. Numbers in names are those of the source. Like-named read-outs stand apart in the source and are kept apart here. Residues, ends and D or L forms follow the SMILES beside them.

As for `Nc1ccn([C@@H]2O[C@H](CO)[C@H]3OP(=O)(O)O[C@H]32)c(=O)n1` [C > p, cytidine-2',3'-cyclic monophosphate, reference compound], the kcat/Km with Lys66Glu BP-RNase [1] worked out at 3.0 mM⁻¹ s⁻¹; in the data set with HP-RNase, 1.2; in data set [2] it was 1.2; in the data set on Lys66Glu BP-RNase [3] it was 3.0.

As usually defined, the IC50 is the concentration at which inhibition is half-maximal. With `NCC(=O)NC[C@H]1O[C@@H](n2ccc(=O)[nH]c2=O)[C@H](O)[C@@H]1OP(=O)(O)Oc1ccc(N(CCCl)CCCl)cc1` [Example 3, O-[(2R,3S,4R,5R)-2-(2-aminoacetamidomethyl)-5-(2,4-dioxo-1,2,3,4-tetrahydropyrimidin-1-yl)-4-hydroxy-2,3,4,5-tetrahydrofuran-3-yl]O-[4-(bis[2-chloroethyl]amino)phenyl] hydrogen phosphate], the kcat/Km with HP-RNase was 0.2; in [2], 3.6; in the data set with Lys66Glu BP-RNase [3] it was 18; at BP-RNase, 370 M⁻¹ s⁻¹. Further, the “rate of hydrolysis compared with native enzyme” value (in data set [2]; in the data set with Lys66Glu BP-RNase [3]) was “much faster than the native enzyme” each time. Besides, in data set [4], the “cytotoxicity of prodrug with A5B7 F(ab')2-Arg4Ala,Lys6Ala,Lys66Glu HP-RNase conjugate” value is listed as “comparable to that of the active drug”. Further, the “cytotoxicity of prodrug with free Arg4Ala,Lys6Ala,Lys66Glu HP-RNase” value in data set [4] is “comparable to that of the active drug”. Also, the “fold less cytotoxic than the drug” value in data set [4] (human) is recorded as “approximately 30 fold”. For the same molecule, the IC50 in data set [4] (read-out: IC50 (inhibition of cell growth by 50%)) is approximately 30 µM. Further, the “tumour growth with combination of conjugate and prodrug” value in the data set on LoVo tumour is reported as “significantly slower”.

What is called Km is the substrate concentration at which the rate is half of its maximum. The kcat is the number of substrate molecules converted per active site and unit of time at saturation. As for `O=C(O)C[C@H](NC(=O)CNC(=O)c1ccccc1)C(=O)O` [Hipp-Asp, hippuryl-L-aspartic acid] (HELM PEPTIDE1{[O=C(c1ccccc1)[*:2]].G.D}$$$$V2.0), in the data set with D253K mutant HCPB, the Km is 2.7 mM, the kcat worked out at 0.26 s⁻¹ and the kcat/Km was determined as 100 M⁻¹ s⁻¹.

As to `O=C(O)CC[C@H](NC(=O)CNC(=O)c1ccccc1)C(=O)O` [Hipp-Glu, hippuryl-L-glutamic acid] (HELM PEPTIDE1{[O=C(c1ccccc1)[*:2]].G.E}$$$$V2.0), the “kcat/Km compared to the Hipp-Asp substrate” value in the data set on D253K mutant HCPB (Hipp-Glu vs Hipp-Asp) is recorded as “approximately 7 fold”. In the data set with D253K mutant HCPB, the Km was 5.3 mM, the kcat was 3.8 s⁻¹ and the kcat/Km was 700 M⁻¹ s⁻¹.

On to `CCCN(CCC)c1ccc(OP(=O)(O)O[C@H]2[C@@H](O)[C@H](n3ccc(=O)[nH]c3=O)O[C@@H]2CNC(=O)CN)cc1` [Reference Example 6], for which the kcat/Km with Lys66Glu BP-RNase [1] is recorded as 25(6) mM^-1 s^-1.

As for `CCCN(CCC)c1ccc(OP(=O)(O)O[C@H]2[C@@H](O)[C@H](n3ccc(N)nc3=O)O[C@@H]2CNC(=O)CN)cc1` [Reference Example 7], the kcat/Km in the data set on Lys66Glu BP-RNase [1] is reported as 109(11) mM^-1 s^-1.

B1: Rec. HP-RNase R4A:K6A: recombinant Arg4Ala,Lys6Ala human pancreatic ribonuclease (protein, UniProt P07998 29-156, looked up, variant R4A K6A)
Ribonuclease pancreatic: KESAAAKFQRQHMDSDSSPSSSSTYCNQMMRRRNMTQGRCKPVNTFVHEPLVDVQNVCFQEKVTCKNGQGNCYKSNSSMHITDCRLTNGSRYPNCAYRTSPKERHIIVACEGSPYVPVHFDASVEDST
For B1, at C > p, the “kinetic properties compared with homologous bovine counterpart” value was “not significantly different”.

B2: Native CPB: native human pancreatic carboxypeptidase B, recombinant (protein, UniProt P15086 111-417, looked up)
Carboxypeptidase B: ATGHSYEKYNKWETIEAWTQQVATENPALISRSVIGTTFEGRAIYLLKVGKAGQNKPAIFMDCGFHAREWISPAFCQWFVREAVRTYGREIQVTELLDKLDFYVLPVLNIDGYIYTWTKSRFWRKTRSTHTGSSCIGTDPNRNFDAGWCEIGASRNPCDETYCGPAAESEKETKALADFIRNKLSSIKAYLTIHSYSQMMIYPYSYAYKLGENNAELNALAKATVKELASLHGTKYTYGPGATTIYPAAGGSDDWAYDQGIRYSFTFELRDTGRYGFLLPESQIRATCEETFLAIKYVASYVLEHLY
For B2, the “hydrolysis of Hipp-Arg substrate” value in data set [5] (LIPOFECTIN-only control 1.2%) is on record as 61%. Also, in [6], the “% conversion to Hippuric acid, Hipp-Arg” value came to 100%. The “% conversion to Hippuric acid, Hipp-Glu” value in data set [7] was 0%. Besides, the kcat in [8] was 65 s⁻¹. Moreover, in data set [9], the “% conversion to Hippuric acid, Hipp-Asp” value turned out to be 0%.

B3: proHCPB: pro form of human pancreatic carboxypeptidase B expressed from COS cells (protein, UniProt P15086 16-417, looked up)
pro-form: HHGGEHFEGEKVFRVNVEDENHINIIRELASTTQIDFWKPDSVTQIKPHSTVDFRVKAEDTVTVENVLKQNELQYKVLISNLRNVVEAQFDSRVRATGHSYEKYNKWETIEAWTQQVATENPALISRSVIGTTFEGRAIYLLKVGKAGQNKPAIFMDCGFHAREWISPAFCQWFVREAVRTYGREIQVTELLDKLDFYVLPVLNIDGYIYTWTKSRFWRKTRSTHTGSSCIGTDPNRNFDAGWCEIGASRNPCDETYCGPAAESEKETKALADFIRNKLSSIKAYLTIHSYSQMMIYPYSYAYKLGENNAELNALAKATVKELASLHGTKYTYGPGATTIYPAAGGSDDWAYDQGIRYSFTFELRDTGRYGFLLPESQIRATCEETFLAIKYVASYVLEHLY
modifications: pro-form
notes: pro form of human pancreatic carboxypeptidase B expressed from COS cells
For the molecule B3, in data set [5] (trypsin 700 μg/ml, LIPOFECTIN-only control 30%), the “hydrolysis of Hipp-Arg substrate after activation with trypsin” value is reported as “complete hydrolysis”.

B4: Rec. BP-RNase: recombinant bovine pancreatic ribonuclease (protein, UniProt P61823 27-150, looked up)
Ribonuclease pancreatic: T1 sequence (P61823 27-150)
Turning to B4, the “specific activity compared with the commercial enzyme” value with C>p (hydrolysis of CpA and C>p) was “equal specific activity to that of the commercial enzyme”.

B5: Lys66Glu BP-RNase: bovine Lys66Glu pancreatic ribonuclease (protein, UniProt P61823 27-150, looked up, variant K66E)
Ribonuclease pancreatic: T1 sequence (P61823 27-150) with K66E
With B5, on C>p (C>p hydrolysis, pH 7.0), the “kinetic properties compared with commercial bovine enzyme” value is given as “not significantly different to the commercial bovine enzyme”.
